Drawing on ChEMBL document CHEMBL1139128, “Structure-activity relationship analysis of a novel necroptosis inhibitor, Necrostatin-5” (Bioorg Med Chem Lett, 2007), this text covers Activity and EC50 for 86 molecules.

In general, EC50 refers to the concentration giving half of the maximal effect.

For this experiment, the system named is Jurkat. Description: Inhibition of TNF-alpha-induced necroptosis in FADD-deficient Jurkat T cells. In kind it is functional, cell-based. Further details: concentration or dose not given beside the values. To be noted: for EC50: Jurkat.

Molecules are shown by their SMILES. Activity calls are given as the source filed them. No rule for the calls is given here.

Turning to `CCN1CCc2sc3nc(SC)n(-c4ccc(OC)cc4)c(=O)c3c2C1`, the result (Homo sapiens) was inactive.

On to `CSc1nc2sc3c(c2c(=O)n1-c1ccc(OC(F)(F)F)cc1)CCCC3`, for which the outcome (Homo sapiens) was inactive.

For the molecule `CCCCCCCCCCCCCCc1sc2nc(SCC#N)n(-c3ccc(OC)cc3)c(=O)c2c1C`, the outcome (Homo sapiens) was inactive.

Consider `COc1ccc(-n2c(SC)nc3scc(C)c3c2=O)cc1`, for which the outcome (Homo sapiens) was inactive.

Regarding `CCCc1sc2nc(SCC#N)n(-c3ccc(OC)cc3)c(=O)c2c1C`, the result (Homo sapiens) was inactive.

For `CCc1sc2nc(SCCO)n(-c3ccc(OC)cc3)c(=O)c2c1C`, the outcome (Homo sapiens) was inactive.

Take `CSc1ccc(-n2c(SCC#N)nc3sc4c(c3c2=O)CCCC4)cc1`: the Activity came to 70%. The EC50 (Homo sapiens) was determined as 2330 nM.

In the case of `C#CCSc1nc2sc(C)c(C)c2c(=O)n1-c1ccc2c(c1)OCO2`, the result (Homo sapiens) was inactive.

`COc1ccc(-n2c(SCC(=O)O)nc3sc(C)c(C)c3c2=O)cc1`: where the note is “Homo sapiens”, the result was inactive.

`CCc1c(C)sc2nc(SC)n(-c3ccc4c(c3)OCO4)c(=O)c12`: the result (Homo sapiens) was inactive.

Turning to `CCOc1ccc(-n2c(SC)nc3sc4c(c3c2=O)CCC4)cc1`, the outcome (Homo sapiens) was inactive.

The molecule `COc1ccc(-n2c(SC)nc3sc4ccccc4c3c2=O)cc1` showed an Activity of 77%. The response (Homo sapiens) was half-maximal at 240 nM (EC50).

Consider `CCSc1nc2sc3c(c2c(=O)n1-c1ccccc1)CCCCC3`, for which the result (Homo sapiens) was inactive.

As to `N#CCSc1nc2sc3c(c2c(=O)n1-c1ccc(OC(F)(F)F)cc1)CCCCC3`, for the setting “Homo sapiens”, the result was inactive.

For `CCCSc1nc2sc3c(c2c(=O)n1-c1ccc(OC)cc1)CCCC3`, for the setting “Homo sapiens”, the outcome was inactive.

The molecule `N#CCSc1nc2sc3c(c2c(=O)n1-c1ccc(F)cc1)CCCC3` came in with an Activity of 85.1%. Besides, the EC50 (Homo sapiens) was 240 nM.

`C=CCSc1nc2sc3c(c2c(=O)n1-c1ccc(OC)cc1)CCC3`: the result (Homo sapiens) was inactive.

`C#CCSc1nc2scc(C)c2c(=O)n1-c1ccc(OC)cc1`: the outcome (Homo sapiens) was inactive.

The molecule `Cc1sc2nc(SCC#N)n(-c3ccc(OC(F)(F)F)cc3)c(=O)c2c1C` displayed an Activity of 63%. The concentration giving a half-maximal response (EC50) (Homo sapiens) was determined as 3700 nM.

For the molecule `N#CCSc1nc2sc3c(c2c(=O)n1-c1ccc(F)cc1)CCCCC3`, for the setting “Homo sapiens”, the outcome was inactive.

On to `COc1ccc(-n2c(SCC(C)=O)nc3sc4c(c3c2=O)CCCC4)cc1`, for which the outcome (Homo sapiens) was inactive.

For `N#CCSc1nc2sc3c(c2c(=O)n1-c1ccc(OC(F)(F)F)cc1)CCCC3`, under “Homo sapiens”, the result was inactive.

In the case of `COc1ccc(-n2c(SC(C)=O)nc3sc4c(c3c2=O)CCCC4)cc1`, under “Homo sapiens”, the result was inactive.

In the case of `N#CCSc1nc2sc3ccccc3c2c(=O)n1-c1ccc2c(c1)OCO2`, the Activity was found to be 100%. The same molecule showed an EC50 (Homo sapiens) of 270 nM.

Turning to `N#CCSc1nc2sc3ccccc3c2c(=O)n1-c1ccc(OC(F)(F)F)cc1`, the outcome (Homo sapiens) was inactive.

In turn, `N#CCSc1nc2sc3c(c2c(=O)n1-c1ccc(Cl)c(Cl)c1)CCCC3` had an Activity of 39%. Also, the concentration giving a half-maximal response (EC50) (Homo sapiens) amounted to 5700 nM.

As to `CCSc1nc2sc(C)c(C)c2c(=O)n1-c1ccc(OC)cc1`, where the note is “Homo sapiens”, the outcome was inactive.

Consider `CSc1nc2sc3ccccc3c2c(=O)n1-c1ccc(F)cc1`, for which the concentration giving a half-maximal response (EC50) (Homo sapiens) amounted to 3060 nM.

Take `Cc1sc2nc(SCC#N)n(-c3ccc(N(C)C)cc3)c(=O)c2c1C`: the result (Homo sapiens) was inactive.

For the molecule `COc1ccc(-n2c(SCc3ccc(C)cc3)nc3sc4c(c3c2=O)CCCC4)cc1`, the outcome (Homo sapiens) was inactive.

With `COc1ccc(-n2c(SCC#N)nc3sc4c(c3c2=O)CCC4)cc1OC`, the outcome (Homo sapiens) was inactive.

In the case of `COc1ccc(CSc2nc3sc4c(c3c(=O)n2-c2ccc(OC)cc2)CCCC4)cc1`, where the note is “Homo sapiens”, the result was inactive.

Consider `CCCCCSc1nc2sc3c(c2c(=O)n1-c1ccc(OC)cc1)CCC3`, for which the result (Homo sapiens) was inactive.

For `N#CCSc1nc2sc3c(c2c(=O)n1-c1ccc2c(c1)OCCO2)CCC3`, the Activity came out at 100%. Moreover, it took 250 nM to reach a half-maximal effect (Homo sapiens) (EC50).

For the molecule `CCCCCCSc1nc2sc3c(c2c(=O)n1-c1ccc(OC)cc1)CCCC3`, where the note is “Homo sapiens”, the outcome was inactive.

Turning to `N#CCSc1nc2sc3c(c2c(=O)n1-c1ccc2c(c1)OCO2)CCC3`, the Activity worked out at 100%. Moreover, where the note is “Homo sapiens”, a half-maximal response (EC50) required 1180 nM.

For the molecule `COc1ccc(-n2c(SC)nc3sc4c(c3c2=O)CN(C(C)C)CC4)cc1`, the outcome (Homo sapiens) was inactive.

Where the note is “Homo sapiens”, `N#CCSc1nc2sc3ccccc3c2c(=O)n1-c1ccc(F)cc1` came in with a concentration for a half-maximal effect (EC50) of 3060 nM.

For the molecule `CCSc1nc2sc(CC)c(C)c2c(=O)n1-c1ccc(OC)cc1`, the result (Homo sapiens) was inactive.

Regarding `CSc1nc2sc(C)c(C)c2c(=O)n1-c1ccc(OCc2ccccc2)cc1`, the result (Homo sapiens) was inactive.

Molecule `N#CCSc1nc2sc3c(c2c(=O)n1-c1ccc(Cl)cc1)CCCC3` registered an Activity of 55%. The EC50 (Homo sapiens) was determined as 8500 nM.

In the case of `CCOc1ccc(-n2c(SC)nc3sc(C)c(C)c3c2=O)cc1`, the result (Homo sapiens) was inactive.

In the case of `CCOc1ccc(-n2c(SC)nc3sc4ccccc4c3c2=O)cc1`, the outcome (Homo sapiens) was inactive.

Turning to `CSc1nc2sc(C)c(C)c2c(=O)n1-c1ccc(OC(F)(F)F)cc1`, for the setting “Homo sapiens”, the outcome was inactive.

The molecule `Cc1sc2nc(SCC#N)n(-c3ccc4c(c3)OCCO4)c(=O)c2c1C` came in with an Activity of 100%. The molecule further came in with an EC50 (Homo sapiens) of 250 nM.

Turning to `C#CCSc1nc2sccc2c(=O)n1-c1ccc(OC)cc1`, the outcome (Homo sapiens) was inactive.

For `C#CCSc1nc2sc3c(c2c(=O)n1-c1ccc(OC)cc1)CCCC3`, the Activity is reported as 80.7%. The EC50 (Homo sapiens) amounted to 6080 nM.

With `Cc1cc(Cl)ccc1-n1c(SCC#N)nc2sc3c(c2c1=O)CCCC3`, the outcome (Homo sapiens) was inactive.

As for `CCc1sc2nc(SC)n(-c3ccc(F)cc3)c(=O)c2c1C`, the result (Homo sapiens) was inactive.

For the molecule `CCc1sc2nc(SCC#N)n(-c3ccc(OC)cc3)c(=O)c2c1C`, the Activity turned out to be 86.8%. Besides, for the setting “Homo sapiens”, the EC50 turned out to be 5260 nM.

Consider `N#CCSc1nc2sccc2c(=O)n1-c1ccccc1`, for which the outcome (Homo sapiens) was inactive.

Consider `N#CCSc1nc2sc3c(c2c(=O)n1-c1ccc(OC(F)(F)F)cc1)CCC3`, for which the Activity is listed as 70%. Besides, for the setting “Homo sapiens”, the concentration for a half-maximal effect (EC50) amounted to 3700 nM.

Consider `CCCc1sc2nc(SCCO)n(-c3ccc(OC)cc3)c(=O)c2c1C`, for which the result (Homo sapiens) was inactive.

As to `CCOc1ccc(-n2c(SCC#N)nc3sc4c(c3c2=O)CCC4)cc1`, where the note is “Homo sapiens”, the result was inactive.

Regarding `C#CCSc1nc2sc(CC)c(C)c2c(=O)n1-c1ccc2c(c1)OCO2`, for the setting “Homo sapiens”, the outcome was inactive.

In the case of `COc1ccc(-n2c(SCc3ccc([N+](=O)[O-])cc3)nc3sc4c(c3c2=O)CCC4)cc1`, the result (Homo sapiens) was inactive.

Regarding `CSc1cccc(-n2c(SC)nc3sc4c(c3c2=O)CCCC4)c1`, under “Homo sapiens”, the result was inactive.

For `CSc1nc2sc3c(c2c(=O)n1-c1ccc(C)c(C)c1)CCC3`, the result (Homo sapiens) was inactive.

Turning to `CCN1CCc2sc3nc(SCC#N)n(-c4ccc(OC)cc4)c(=O)c3c2C1`, the result (Homo sapiens) was inactive.

Consider `CCSc1nc2sc3c(c2c(=O)n1-c1ccc(OC)cc1)CCCCC3`, for which the outcome (Homo sapiens) was inactive.

In turn, `COc1ccc(-n2c(SC)nc3sc4c(c3c2=O)CCCC4)cc1` registered an Activity of 71%. Where the note is “Homo sapiens”, this molecule registered an EC50 of 240 nM.

On to `CCc1c(C)sc2nc(SCC#N)n(-c3ccc4c(c3)OCO4)c(=O)c12`, for which the Activity came out at 100%. For the same molecule, the EC50 (Homo sapiens) is 1900 nM.

Molecule `C#CCSc1nc2sc(C)c(C)c2c(=O)n1-c1ccc(OC)cc1` registered an Activity of 90.3%. The molecule also showed an EC50 (Homo sapiens) of 4860 nM.

As for `COc1ccc(-n2c(SC)nc3sc(C(C)C)c(C)c3c2=O)cc1`, the outcome (Homo sapiens) was inactive.

For `CCCSc1nc2sc3c(c2c(=O)n1-c1ccc(OC)cc1)CCC3`, the result (Homo sapiens) was inactive.

With `COc1ccc(-n2c(SCC#N)nc3sc4c(c3c2=O)CCCC4)c(OC)c1`, the result (Homo sapiens) was inactive.

Consider `CSc1nc2sc3ccccc3c2c(=O)n1-c1ccc2c(c1)OCO2`, for which the outcome (Homo sapiens) was inactive.

For the molecule `COc1ccc(-n2c(SCC#N)nc3sccc3c2=O)cc1`, the result (Homo sapiens) was inactive.

Regarding `CCN1CCc2sc3nc(SC)n(-c4ccccc4)c(=O)c3c2C1`, under “Homo sapiens”, the result was inactive.

`Cc1ccc(-n2c(SCC#N)nc3sc4c(c3c2=O)CC(C)CC4)cc1C` (stereo unspecified) returned an Activity of 38%. Also, it took 16700 nM to reach a half-maximal effect (Homo sapiens) (EC50).

In the case of `CCCCSc1nc2sc3c(c2c(=O)n1-c1ccc(OC)cc1)CCC3`, the result (Homo sapiens) was inactive.

For the molecule `CCCC(=O)Sc1nc2sc3c(c2c(=O)n1-c1ccc(OC)cc1)CCCC3`, the outcome (Homo sapiens) was inactive.

With `N#CCSc1nc2sc3c(c2c(=O)n1-c1ccc(Br)cc1)CCCC3`, the result (Homo sapiens) was inactive.

`CCCCCSc1nc2sc3c(c2c(=O)n1-c1ccc(OC)cc1)CCCC3`: the result (Homo sapiens) was inactive.

Turning to `CSc1nc2sc(C)c(C)c2c(=O)n1-c1ccc2c(c1)OCO2`, the Activity was 67%. The molecule also came in with an EC50 (Homo sapiens) of 1110 nM.

On to `CSc1nc2sc3c(c2c(=O)n1-c1ccc(Cl)cc1C)CCCC3`, for which the result (Homo sapiens) was inactive.

On to `COc1ccc(-n2c(SCCO)nc3sc4c(c3c2=O)CCC4)cc1`, for which the Activity turned out to be 100%. Besides, under “Homo sapiens”, the EC50 worked out at 7140 nM.

Regarding `COc1ccc(-n2c(SCC(C)O)nc3sc4c(c3c2=O)CCCC4)cc1` (stereo unspecified), for the setting “Homo sapiens”, the outcome was inactive.

As for `COc1ccc(-n2c(SCC#N)nc3scc(C)c3c2=O)cc1`, the result (Homo sapiens) was inactive.

In the case of `COc1ccc(-n2c(SCC(C)=O)nc3sc4c(c3c2=O)CCC4)cc1`, the outcome (Homo sapiens) was inactive.

In the case of `N#CCSc1nc2sc3c(c2c(=O)n1-c1ccc(F)c(F)c1)CCCC3`, the result (Homo sapiens) was inactive.

The molecule `COc1ccc(-n2c(SCC#N)nc3sc4c(c3c2=O)CCCC4)cc1` returned an Activity of 100%. Where the note is “Homo sapiens”, this molecule registered an EC50 of 240 nM.

With `COc1ccc(-n2c(SCCC#N)nc3sc(C)c(C)c3c2=O)cc1`, the outcome (Homo sapiens) was inactive.

As for `Cc1ccccc1-n1c(SCC#N)nc2sc3c(c2c1=O)CCCC3`, for the setting “Homo sapiens”, the outcome was inactive.

`CCCc1sc2nc(SCC)n(-c3ccc(OC)cc3)c(=O)c2c1C`: the result (Homo sapiens) was inactive.

Take `COc1ccc(-n2c(SCC(=O)O)nc3sc4c(c3c2=O)CCCC4)cc1`: the outcome (Homo sapiens) was inactive.
